Experiments:
[1] = tested on: rice; assay: Test B flood test rice; format: in vivo, Oryza sativa
How it was run: (§1)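 Each value is a visual injury score relative to controls, with 10 meaning complete control and 0 no effect. Evaluation took place twelve to sixteen days after the 2-leaf-stage plants were treated and kept in the greenhouse.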

[2] = tested on: pigweed; assay: Test B pre/postemergence pigweed; format: in vivo, Amaranthus retroflexus
How it was run: (§2)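 Response is a visual 0-to-10 score relative to untreated plants, where 0 means no effect and 10 means complete control, taken twelve to sixteen days after application. Treatments went onto soil at planting and onto foliage of 1- to 4-leaf plants, using a surfactant-containing non-phytotoxic solvent.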

[3] = tested on: wheat; assay: Test B pre/postemergence wheat; format: in vivo, Triticum aestivum
How it was run: as §2

[4] = tested on: giant foxtail; assay: Test B pre/postemergence giant foxtail; format: in vivo, Setaria faberii
How it was run: as §2

[5] = tested on: wild oat; assay: Test B pre/postemergence wild oat; format: in vivo, Avena fatua
How it was run: as §2

[6] = tested on: bamyardgrass; assay: Test B flood test barnyardgrass; format: in vivo, Echinochloa crus-galli
How it was run: as §1

[7] = tested on: corn; assay: Test B pre/postemergence corn; format: in vivo, Zea mays
How it was run: as §2

[8] = tested on: rape; assay: Test B pre/postemergence rape; format: in vivo, Brassica napus
How it was run: as §2

[9] = tested on: blackgrass; assay: Test B pre/postemergence blackgrass; format: in vivo, Alopecurus myosuroides
How it was run: as §2

[10] = tested on: crabgrass; assay: Test B pre/postemergence crabgrass; format: in vivo, Digitaria sanguinalis
How it was run: as §2

[11] = tested on: morningglory; assay: Test B pre/postemergence morningglory; format: in vivo, Ipomoea hederacea
How it was run: as §2

[12] = tested on: bedstraw; assay: Test B pre/postemergence bedstraw; format: in vivo, Galium aparine
How it was run: as §2

[13] = tested on: purple nutsedge; assay: Test B pre/postemergence purple nutsedge; format: in vivo, Cyperus rotundus
How it was run: as §2

[14] = tested on: sugar beet; assay: Test B pre/postemergence sugar beet; format: in vivo, Beta vulgaris
How it was run: as §2

[15] = tested on: cocklebur; assay: Test B pre/postemergence cocklebur; format: in vivo, Xanthium strumarium
How it was run: as §2

[16] = tested on: surinam grass; assay: Test B pre/postemergence surinam grass; format: in vivo, Brachiaria decumbens
How it was run: as §2

[17] = Rate 62 g/ha, headed Pre-emergence (flood test species), scale 0 to 10 (0 no effect, 10 complete control)
[18] = Rate 125 g/ha, Pre-emergence, flood test species, scale 0 to 10 where 0 is no effect and 10 is complete control
[19] = Rate 250 g/ha, Pre-emergence, flood-test species, scale 0 to 10, 0 is no effect, 10 is complete control
[20] = Rate 500 g/ha, headed Pre-emergence (flood test species), scale 0 to 10 (0 no effect, 10 complete control)
[21] = Rate 1000 g/ha, Pre-emergence (as headed), scale 0 to 10
[22] = Postemergence, Rate 1000 g/ha, scale 0 to 10 (0 no effect, 10 complete control)
[23] = Preemergence, Rate 62 g/ha, scale of 0 to 10 where 0 is no effect and 10 is complete control
[24] = Preemergence, Rate 125 g/ha, 0 is no effect, 10 is complete control
[25] = Preemergence, Rate 250 g/ha, scale 0 to 10, 0 is no effect, 10 is complete control
[26] = Preemergence, Rate 500 g/ha, scale 0 to 10 (0 no effect, 10 complete control)
[27] = Rate 62 g/ha, Postemergence, scale of 0 to 10 where 0 is no effect and 10 is complete control
[28] = Rate 125 g/ha, Postemergence, scale 0 to 10
[29] = Rate 500 g/ha, Postemergence, scale 0 to 10
[30] = Rate 1000 g/ha, Preemergence, scale 0 to 10 (0 no effect, 10 complete control)

CC(C)N(C(=O)n1oc(=O)n(C2CCCC(C(F)(F)F)C2)c1=O)c1ccc(F)cc1 (stereo not shown) [Compound 184]
Rice plant response rating [1, 17]: 0 | Rice plant response rating [1, 18]: 0 | Rice plant response rating [1, 19]: 0 | Plant response rating, Rice [1, 20]: 0 | Rice plant response rating [1, 21]: 0 | Redroot pigweed plant response rating [2, 22]: 6 | Redroot pigweed plant response rating [2, 23]: 0 | Redroot pigweed plant response rating (0 to 10 scale) [2, 24]: 0 | Redroot pigweed plant response rating [2, 25]: 0 | Redroot pigweed plant response rating [2, 26]: 1 | Redroot pigweed plant response rating [2, 27]: 0 | Redroot pigweed plant response rating [2, 28]: 4 | Plant response rating (0 to 10; 0 is no effect, 10 is complete control), Redroot pigweed ([2]; Rate 250 g/ha, Postemergence): 7 | Redroot pigweed plant response rating [2, 29]: 7 | Plant response rating, Redroot pigweed [2, 30]: 2 | Wheat plant response rating [3, 22]: 3 | Wheat plant response rating [3, 23]: 0 | Wheat plant response rating [3, 25]: 0 | Wheat plant response rating [3, 26]: 0 | Wheat plant response rating [3, 28]: 2 | Plant response rating (0 to 10; 0 is no effect, 10 is complete control), Wheat ([3]; Rate 250 g/ha, Postemergence): 2 | Wheat plant response rating [3, 29]: 3 | Plant response rating, Wheat [3, 30]: 0 | Giant foxtail plant response rating [4, 22]: 3 | Giant foxtail plant response rating [4, 23]: 0 | Giant foxtail plant response rating (0 to 10 scale) [4, 24]: 9 | Giant foxtail plant response rating [4, 25]: 10 | Giant foxtail plant response rating [4, 26]: 10 | Giant foxtail plant response rating [4, 27]: 0 | Giant foxtail plant response rating [4, 28]: 0 | Plant response rating (0 to 10; 0 is no effect, 10 is complete control), Giant foxtail ([4]; Rate 250 g/ha, Postemergence): 0 | Giant foxtail plant response rating [4, 29]: 2 | Plant response rating, Giant foxtail [4, 30]: 10 | Wild oats plant response rating [5, 22]: 5 | Wild oats plant response rating [5, 23]: 0 | Wild oats plant response rating [5, 25]: 0 | Wild oats plant response rating [5, 26]: 3 | Wild oats plant response rating [5, 28]: 0 | Plant response rating (0 to 10; 0 is no effect, 10 is complete control), Wild oats ([5]; Rate 250 g/ha, Postemergence): 0 | Wild oats plant response rating [5, 29]: 2 | Plant response rating, Wild oats [5, 30]: 4 | Barnyardgrass plant response rating [6, 17]: 0 | Barnyardgrass plant response rating [6, 18]: 0 | Barnyardgrass plant response rating [6, 19]: 0 | Plant response rating, Barnyardgrass [6, 20]: 6 | Barnyardgrass plant response rating ([6]; Rate 500 g/ha, listed under Postemergence (flood test species), scale 0 to 10): 0 | Barnyardgrass plant response rating [6, 21]: 3 | Corn plant response rating [7, 22]: 0 | Corn plant response rating [7, 23]: 0 | Corn plant response rating (0 to 10 scale) [7, 24]: 0 | Corn plant response rating [7, 25]: 0 | Corn plant response rating [7, 26]: 0 | Corn plant response rating [7, 27]: 0 | Corn plant response rating [7, 28]: 0 | Plant response rating (0 to 10; 0 is no effect, 10 is complete control), Corn ([7]; Rate 250 g/ha, Postemergence): 0 | Corn plant response rating [7, 29]: 0 | Plant response rating, Corn [7, 30]: 2 | Rape plant response rating [8, 22]: 3 | Rape plant response rating [8, 23]: 0 | Rape plant response rating (0 to 10 scale) [8, 24]: 0 | Rape plant response rating [8, 25]: 0 | Rape plant response rating [8, 26]: 0 | Rape plant response rating [8, 27]: 0 | Rape plant response rating [8, 28]: 2 | Plant response rating (0 to 10; 0 is no effect, 10 is complete control), Rape ([8]; Rate 250 g/ha, Postemergence): 3 | Rape plant response rating [8, 29]: 6 | Plant response rating, Rape [8, 30]: 0 | Blackgrass plant response rating [9, 22]: 7 | Blackgrass plant response rating [9, 23]: 0 | Blackgrass plant response rating (0 to 10 scale) [9, 24]: 3 | Blackgrass plant response rating [9, 25]: 5 | Blackgrass plant response rating [9, 26]: 7 | Blackgrass plant response rating [9, 27]: 0 | Blackgrass plant response rating [9, 28]: 1 | Plant response rating (0 to 10; 0 is no effect, 10 is complete control), Blackgrass ([9]; Rate 250 g/ha, Postemergence): 3 | Blackgrass plant response rating [9, 29]: 4 | Plant response rating, Blackgrass [9, 30]: 7 | Crabgrass plant response rating [10, 22]: 2 | Crabgrass plant response rating [10, 23]: 0 | Crabgrass plant response rating (0 to 10 scale) [10, 24]: 5 | Crabgrass plant response rating [10, 25]: 7 | Crabgrass plant response rating [10, 26]: 9 | Crabgrass plant response rating [10, 27]: 0 | Crabgrass plant response rating [10, 28]: 0 | Plant response rating (0 to 10; 0 is no effect, 10 is complete control), Crabgrass ([10]; Rate 250 g/ha, Postemergence): 0 | Crabgrass plant response rating [10, 29]: 2 | Plant response rating, Crabgrass [10, 30]: 9 | Morningglory plant response rating [11, 22]: 9 | Morningglory plant response rating [11, 23]: 0 | Morningglory plant response rating (0 to 10 scale) [11, 24]: 0 | Morningglory plant response rating [11, 25]: 0 | Morningglory plant response rating [11, 26]: 0 | Morningglory plant response rating [11, 27]: 0 | Morningglory plant response rating [11, 28]: 6 | Plant response rating (0 to 10; 0 is no effect, 10 is complete control), Morningglory ([11]; Rate 250 g/ha, Postemergence): 6 | Morningglory plant response rating [11, 29]: 7 | Plant response rating, Morningglory [11, 30]: 2 | Bedstraw plant response rating [12, 23]: 0 | Bedstraw plant response rating (0 to 10 scale) [12, 24]: 0 | Bedstraw plant response rating [12, 25]: 2 | Bedstraw plant response rating [12, 26]: 2 | Bedstraw plant response rating [12, 27]: 0 | Bedstraw plant response rating [12, 28]: 7 | Plant response rating (0 to 10; 0 is no effect, 10 is complete control), Bedstraw ([12]; Rate 250 g/ha, Postemergence): 3 | Bedstraw plant response rating [12, 29]: 6 | Plant response rating, Bedstraw [12, 30]: 2 | Nutsedge plant response rating [13, 22]: 0 | Nutsedge plant response rating [13, 23]: 0 | Nutsedge plant response rating (0 to 10 scale) [13, 24]: 0 | Nutsedge plant response rating [13, 25]: 0 | Nutsedge plant response rating [13, 26]: 0 | Nutsedge plant response rating [13, 27]: 0 | Nutsedge plant response rating [13, 28]: 0 | Plant response rating (0 to 10; 0 is no effect, 10 is complete control), Nutsedge ([13]; Rate 250 g/ha, Postemergence): 0 | Nutsedge plant response rating [13, 29]: 0 | Sugarbeets plant response rating [14, 22]: 0 | Sugarbeets plant response rating [14, 23]: 0 | Sugarbeets plant response rating (0 to 10 scale) [14, 24]: 0 | Sugarbeets plant response rating [14, 25]: 0 | Sugarbeets plant response rating [14, 26]: 0 | Sugarbeets plant response rating [14, 27]: 2 | Sugarbeets plant response rating [14, 28]: 2 | Plant response rating (0 to 10; 0 is no effect, 10 is complete control), Sugarbeets ([14]; Rate 250 g/ha, Postemergence): 5 | Sugarbeets plant response rating [14, 29]: 6 | Plant response rating, Sugarbeets [14, 30]: 2 | Cocklebur plant response rating [15, 22]: 2 | Cocklebur plant response rating [15, 23]: 0 | Cocklebur plant response rating (0 to 10 scale) [15, 24]: 0 | Cocklebur plant response rating [15, 25]: 0 | Cocklebur plant response rating [15, 26]: 2 | Cocklebur plant response rating [15, 27]: 0 | Cocklebur plant response rating [15, 28]: 0 | Plant response rating (0 to 10; 0 is no effect, 10 is complete control), Cocklebur ([15]; Rate 250 g/ha, Postemergence): 0 | Cocklebur plant response rating [15, 29]: 1 | Plant response rating, Cocklebur [15, 30]: 3 | B. signalgrass plant response rating [16, 22]: 3 | B. signalgrass plant response rating [16, 23]: 5 | B. signalgrass plant response rating (0 to 10 scale) [16, 24]: 5 | B. signalgrass plant response rating [16, 25]: 8 | B. signalgrass plant response rating [16, 26]: 8 | B. signalgrass plant response rating [16, 27]: 0 | B. signalgrass plant response rating ([16]; Rate 125 g/ha, Postemergence, scale 0 (no effect) to 10 (complete control)): 0 | Plant response rating, B. signalgrass ([16]; Rate 250 g/ha, Postemergence, scale 0 to 10, 0 is no effect, 10 is complete control): 0 | B. signalgrass plant response rating ([16]; Rate 500 g/ha, Postemergence, scale 0 to 10, 0 no effect, 10 complete control): 0 | Plant response rating, B. signalgrass [16, 30]: 5

From patent US6737383B1, “Herbicidal oxadiazolidines” (priority 1999, dated 2004)
